Among the data in ChEMBL document CHEMBL1138294, “Design and development of water-soluble curcumin conjugates as potential anticancer agents” (J Med Chem, 2007) are Activity and IC50 values, retold here.

In assay [1] the test system is PC-3. Description: Cytotoxicity against human PC3 cells at 10 uM. It is filed as functional.
Assay [2] concerns PC-3. Description: Cytotoxicity against human PC3 cells at 20 uM. It is filed as functional.
Assay [3] has as its system PC-3. Description: Cytotoxicity against human PC3 cells. The format is functional, cell-based.
The test system of assay [4] is MIA PaCa-2. The assay is described as follows: Cytotoxicity against human MIA PaCa2 cells. The format is functional, cell-based.
For assay [5], the system named is LS174T. The assay is described as follows: Cytotoxicity against human LS174T cells. The format is functional, cell-based.
The subject of assay [6] is BXPC-3. Description: Cytotoxicity against human BxPC3 cells. It is filed as functional, cell-based.

Regarding `COc1cc(/C=C/C(=O)CC(=O)/C=C/c2ccc(O)c(OC)c2)ccc1O` [CURCUMIN], the Activity in assay [1] is listed as 65%; in assay [2] it was 90%. The IC50 in assay [3] turned out to be 12 µM; in assay [4], 9 µM; in assay [5], 6.5 µM; in assay [6], 2.9 µM.
